Test system: MV-4-11 cells
Assay: Gene expression microarray analysis (Affymetrix PrimeView) and GSEA
Assay type: cell-based, human
Set-up: RFU PODN (11730768_x_at) / Fold change /veh PODN (11730768_x_at) / RFU LINC00158 (11744669_a_at) / Fold change /veh LINC00158 (11744669_a_at) / RFU DUSP10 (11751237_a_at) / Fold change /veh DUSP10 (11751237_a_at) / RFU ID3 (11757404_x_at) / Fold change /veh ID3 (11757404_x_at) / RFU PLEKHG5 (11737974_s_at) / Fold change /veh PLEKHG5 (11737974_s_at) / RFU LRRC4B (11730491_at) / Fold change /veh LRRC4B (11730491_at) / RFU GIMAP4 (11747438_a_at) / Fold change /veh GIMAP4 (11747438_a_at) / RFU KRT8 (11758183_x_at) / Fold change /veh KRT8 (11758183_x_at) / RFU CNN1 (11734310_a_at) / Fold change /veh CNN1 (11734310_a_at) / RFU VPS37D (11726825_at) / Fold change /veh VPS37D (11726825_at) / RFU C10orf10 (11716522_x_at) / Fold change /veh C10orf10 (11716522_x_at) / RFU KIR2DL2 /// KIR2DL4 /// KIR2DL5A /// KIR2DL5B /// KIR2DS1 /// KIR2DS2 /// KIR2DS3 /// KIR2DS4 /// KIR3DL3 /// KIR3DL3 /// KIR3DS1 (11738374_at) / Fold change /veh KIR2DL2 /// KIR2DL4 /// KIR2DL5A /// KIR2DL5B /// KIR2DS1 /// KIR2DS2 /// KIR2DS3 /// KIR2DS4 /// KIR3DL3 /// KIR3DL3 /// KIR3DS1 (11738374_at) / RFU C1QL1 (11718748_at) / Fold change /veh C1QL1 (11718748_at) / RFU TMPRSS4 (11747572_a_at) / Fold change /veh TMPRSS4 (11747572_a_at) / RFU HAMP (11756126_x_at) / Fold change /veh HAMP (11756126_x_at) / RFU RNFT2 (11725882_a_at) / Fold change /veh RNFT2 (11725882_a_at) / RFU NR4A2 (11747474_a_at) / Fold change /veh NR4A2 (11747474_a_at) / RFU ABCC12 (11746883_a_at) / Fold change /veh ABCC12 (11746883_a_at) / RFU TMEM136 (11760407_x_at) / Fold change /veh TMEM136 (11760407_x_at) / RFU CLDN22 /// WWC2 (11732394_at) / Fold change /veh CLDN22 /// WWC2 (11732394_at) / RFU HLA-DPB1 (11760878_x_at) / Fold change /veh HLA-DPB1 (11760878_x_at) / RFU SPINT1 (11716480_a_at) / Fold change /veh SPINT1 (11716480_a_at) / RFU GAP43 (11754022_s_at) / Fold change /veh GAP43 (11754022_s_at) / RFU A4GNT (11735810_at) / Fold change /veh A4GNT (11735810_at) / RFU PRB3 (11715151_x_at) / Fold change /veh PRB3 (11715151_x_at) / RFU TUBB4B (11761932_at) / Fold change /veh TUBB4B (11761932_at) / RFU CAPN14 (11732068_a_at) / Fold change /veh CAPN14 (11732068_a_at) / RFU TMCC2 (11721928_a_at) / Fold change /veh TMCC2 (11721928_a_at) / RFU IRGQ (11745062_a_at) / Fold change /veh IRGQ (11745062_a_at) / RFU FAM174B (11720279_a_at) / Fold change /veh FAM174B (11720279_a_at) / RFU TMPRSS4 (11748680_a_at) / Fold change /veh TMPRSS4 (11748680_a_at) / RFU FAM212B (11763350_a_at) / Fold change /veh FAM212B (11763350_a_at) / RFU PLEKHG5 (11743358_a_at) / Fold change /veh PLEKHG5 (11743358_a_at) / RFU ZSCAN30 (11745921_a_at) / Fold change /veh ZSCAN30 (11745921_a_at) / RFU CMKLR1 (11741424_a_at) / Fold change /veh CMKLR1 (11741424_a_at) / RFU LOC101060620 /// MAPK8IP1 (11723275_at) / Fold change /veh LOC101060620 /// MAPK8IP1 (11723275_at) / RFU SPTSSB (11747773_x_at) / Fold change /veh SPTSSB (11747773_x_at) / RFU PRSS12 (11739890_at) / Fold change /veh PRSS12 (11739890_at) / RFU BIN1 (11741810_x_at) / Fold change /veh BIN1 (11741810_x_at) / RFU WNT11 (11732464_a_at) / Fold change /veh WNT11 (11732464_a_at) / RFU C10orf10 (11716521_a_at) / Fold change /veh C10orf10 (11716521_a_at) / RFU C5orf56 (11738089_at) / Fold change /veh C5orf56 (11738089_at) / RFU CYB561 (11721691_x_at) / Fold change /veh CYB561 (11721691_x_at) / RFU ANKRD19P (11752326_a_at) / Fold change /veh ANKRD19P (11752326_a_at) / RFU OR2T12 /// OR2T33 /// OR2T8 (11738714_s_at) / Fold change /veh OR2T12 /// OR2T33 /// OR2T8 (11738714_s_at) / RFU VCAN (11748164_a_at) / Fold change /veh VCAN (11748164_a_at) / RFU JSRP1 (11732532_at) / Fold change /veh JSRP1 (11732532_at) / RFU KRTAP10-11 (11738290_x_at) / Fold change /veh KRTAP10-11 (11738290_x_at) / RFU MYO3A (11730013_a_at) / Fold change /veh MYO3A (11730013_a_at) / RFU EBF3 (11725865_a_at) / Fold change /veh EBF3 (11725865_a_at) / RFU CAMK2N1 (11719241_x_at) / Fold change /veh CAMK2N1 (11719241_x_at) / RFU C5orf56 (11738088_a_at) / Fold change /veh C5orf56 (11738088_a_at) / RFU OLFML3 (11715873_a_at) / Fold change /veh OLFML3 (11715873_a_at) / RFU LOC100653217 /// NTM (11731650_a_at) / Fold change /veh LOC100653217 /// NTM (11731650_a_at) / RFU MAPK11 (11762145_a_at) / Fold change /veh MAPK11 (11762145_a_at) / RFU FIZ1 (11724087_x_at) / Fold change /veh FIZ1 (11724087_x_at) / RFU OASL (11726364_x_at) / Fold change /veh OASL (11726364_x_at) / RFU SOX15 (11748057_x_at) / Fold change /veh SOX15 (11748057_x_at) / RFU CD79A (11719716_a_at) / Fold change /veh CD79A (11719716_a_at) / RFU HIST1H1D (11736915_at) / Fold change /veh HIST1H1D (11736915_at) / RFU CASKIN2 (11723855_a_at) / Fold change /veh CASKIN2 (11723855_a_at) / RFU LOC730098 (11760151_x_at) / Fold change /veh LOC730098 (11760151_x_at) / RFU OR4N2 (11742367_at) / Fold change /veh OR4N2 (11742367_at) / RFU PRRT2 (11749266_a_at) / Fold change /veh PRRT2 (11749266_a_at) / RFU SNX32 (11753110_a_at) / Fold change /veh SNX32 (11753110_a_at) / RFU CDHR5 (11726645_a_at) / Fold change /veh CDHR5 (11726645_a_at) / RFU RCAN1 (11760418_a_at) / Fold change /veh RCAN1 (11760418_a_at) / RFU FAM167A (11723789_a_at) / Fold change /veh FAM167A (11723789_a_at) / RFU FAM26E (11764081_at) / Fold change /veh FAM26E (11764081_at) / RFU ISYNA1 (11749810_s_at) / Fold change /veh ISYNA1 (11749810_s_at) / RFU ACY1 (11761880_at) / Fold change /veh ACY1 (11761880_at) / RFU 11764098_at / Fold change /veh 11764098_at / RFU SAMD14 (11745864_x_at) / Fold change /veh SAMD14 (11745864_x_at) / RFU NPB (11741838_a_at) / Fold change /veh NPB (11741838_a_at) / RFU TMPRSS6 (11731388_a_at) / Fold change /veh TMPRSS6 (11731388_a_at) / RFU KRTAP10-2 (11738614_at) / Fold change /veh KRTAP10-2 (11738614_at) / RFU ARHGAP8 /// PRR5-ARHGAP8 (11727945_x_at) / Fold change /veh ARHGAP8 /// PRR5-ARHGAP8 (11727945_x_at) / RFU KRTAP5-7 /// NADSYN1 (11734609_at) / Fold change /veh KRTAP5-7 /// NADSYN1 (11734609_at) / RFU RASL12 (11751679_a_at) / Fold change /veh RASL12 (11751679_a_at) / RFU CDKN2B (11736163_a_at) / Fold change /veh CDKN2B (11736163_a_at) / RFU PRF1 (11729649_at) / Fold change /veh PRF1 (11729649_at) / RFU, ZNF638 /// ZNF638-IT1 / Fold change vs veh, ZNF638 /// ZNF638-IT1 / RFU, PANK3 / Fold change vs veh, PANK3 / RFU, SH3YL1 / Fold change vs veh, SH3YL1 / RFU, ZEB2 / Fold change vs veh, ZEB2 / RFU, NRIP1 / Fold change vs veh, NRIP1 / RFU, PTTG1IP / Fold change vs veh, PTTG1IP / RFU, CAPN2 / Fold change vs veh, CAPN2 / RFU, MED14 / Fold change vs veh, MED14 / RFU, SNORA58 / Fold change vs veh, SNORA58 / RFU, C1orf63 / Fold change vs veh, C1orf63 / RFU, LRRFIP1 / Fold change vs veh, LRRFIP1 / RFU, NDUFAF7 / Fold change vs veh, NDUFAF7 / RFU, SLC12A2 / Fold change vs veh, SLC12A2 / RFU, IBTK / Fold change vs veh, IBTK / RFU, ESF1 / Fold change vs veh, ESF1 / Fold change vs veh, TMEM50B / RFU, TAOK1 / Fold change vs veh, TAOK1 / RFU, ACBD3 / Fold change vs veh, ACBD3 / RFU, TMA16 / Fold change vs veh, TMA16 / RFU, RWDD3 / Fold change vs veh, RWDD3 / RFU, BCAT1 / Fold change vs veh, BCAT1 / RFU, EDEM3 / Fold change vs veh, EDEM3 / RFU, TMEM33 / Fold change vs veh, TMEM33 / RFU, WDR75 / Fold change vs veh, WDR75 / RFU, AHCTF1 / Fold change vs veh, AHCTF1 / RFU, TFRC / Fold change vs veh, TFRC / RFU, ZDHHC17 / Fold change vs veh, ZDHHC17 / RFU, NOM1 / Fold change vs veh, NOM1 / RFU, ARL8B / Fold change vs veh, ARL8B / RFU, ZBTB11 / Fold change vs veh, ZBTB11 / RFU, TAMM41 / Fold change vs veh, TAMM41 / RFU, KIAA1704 /// LOC100996395 / Fold change vs veh, KIAA1704 /// LOC100996395 / RFU, ING1 / Fold change vs veh, ING1 / RFU, TRMT61B / Fold change vs veh, TRMT61B / RFU, FUBP3 / Fold change vs veh, FUBP3 / RFU, TP53 / Fold change vs veh, TP53 / RFU, TNKS2 / Fold change vs veh, TNKS2 / RFU, ZFP14 / Fold change vs veh, ZFP14 / RFU, ACTR2 / Fold change vs veh, ACTR2 / RFU, PPP3R1 / Fold change vs veh, PPP3R1 / RFU, PIK3R1 / Fold change vs veh, PIK3R1 / RFU, HNRNPA1 / Fold change vs veh, HNRNPA1 / RFU, RNF170 / Fold change vs veh, RNF170 / RFU, ZNF28 / Fold change vs veh, ZNF28 / RFU, RNGTT / Fold change vs veh, RNGTT / RFU, OGT / Fold change vs veh, OGT / RFU, BRD1 / Fold change vs veh, BRD1 / RFU, MARS / Fold change vs veh, MARS / RFU, ZNF655 / Fold change vs veh, ZNF655 / RFU, FAHD1 / Fold change vs veh, FAHD1 / RFU, BDP1 / Fold change vs veh, BDP1 / RFU, LRRCC1 / Fold change vs veh, LRRCC1 / RFU, ARID1A / Fold change vs veh, ARID1A / RFU, ZNF146 / Fold change vs veh, ZNF146 / RFU, ZNF330 / Fold change vs veh, ZNF330 / RFU, GPN3 / Fold change vs veh, GPN3 / RFU, C9orf123 / Fold change vs veh, C9orf123 / RFU, N4BP2L2 / Fold change vs veh, N4BP2L2 / RFU, ARFIP1 / Fold change vs veh, ARFIP1 / RFU, FAM179B / Fold change vs veh, FAM179B / RFU, BCL10 / Fold change vs veh, BCL10 / RFU, UHRF1BP1L / Fold change vs veh, UHRF1BP1L / RFU, BET1 / Fold change vs veh, BET1 / RFU, CNOT2 / Fold change vs veh, CNOT2 / RFU, ZNF268 / Fold change vs veh, ZNF268 / Fold change vs veh, ZNF507 / RFU, DGCR2 / Fold change vs veh, DGCR2 / RFU, WDSUB1 / Fold change vs veh, WDSUB1 / Fold change vs veh, HSP90B1 /// MIR3652 / RFU, ADSS / Fold change vs veh, ADSS / RFU, GK / Fold change vs veh, GK / RFU, ZNF148 / Fold change vs veh, ZNF148 / RFU, TAF9 / Fold change vs veh, TAF9 / RFU, SLC1A5 / Fold change vs veh, SLC1A5 / RFU, SLMO2 / Fold change vs veh, SLMO2 / RFU, ABCC4 / Fold change vs veh, ABCC4 / RFU, LOC101060439 /// RAP1B / Fold change vs veh, LOC101060439 /// RAP1B / RFU, RFX7 / Fold change vs veh, RFX7 / RFU, GTPBP10 / Fold change vs veh, GTPBP10 / RFU, CNEP1R1 / Fold change vs veh, CNEP1R1 / RFU, BIVM-ERCC5 /// ERCC5 / Fold change vs veh, BIVM-ERCC5 /// ERCC5 / RFU, ILF3 / Fold change vs veh, ILF3 / RFU 11762660_at / Fold change /veh 11762660_at / RFU VCAN (11757783_s_at) / Fold change /veh VCAN (11757783_s_at) / RFU DDX43 (11728927_at) / Fold change /veh DDX43 (11728927_at) / RFU KRT8 (11758188_x_at) / Fold change /veh KRT8 (11758188_x_at) / RFU NKD1 (11759106_at) / Fold change /veh NKD1 (11759106_at) / RFU SRD5A1 (11742802_a_at) / Fold change /veh SRD5A1 (11742802_a_at) / RFU TPSAB1 /// TPSB2 (11721975_s_at) / Fold change /veh TPSAB1 /// TPSB2 (11721975_s_at) / RFU GSTM3 (11746129_a_at) / Fold change /veh GSTM3 (11746129_a_at) / RFU IL23R (11737362_x_at) / Fold change /veh IL23R (11737362_x_at) / RFU TMEM51 (11727254_a_at) / Fold change /veh TMEM51 (11727254_a_at) / RFU PIWIL2 (11732686_x_at) / Fold change /veh PIWIL2 (11732686_x_at) / RFU ORM1 (11744905_x_at) / Fold change /veh ORM1 (11744905_x_at) / RFU CCDC152 (11743942_at) / Fold change /veh CCDC152 (11743942_at) / RFU ECM1 (11717891_a_at) / Fold change /veh ECM1 (11717891_a_at) / RFU IL23R (11748794_a_at) / Fold change /veh IL23R (11748794_a_at) / RFU TNFAIP8L3 (11732012_x_at) / Fold change /veh TNFAIP8L3 (11732012_x_at) / RFU MBOAT4 (11741988_at) / Fold change /veh MBOAT4 (11741988_at) / RFU 11764193_at / Fold change /veh 11764193_at / RFU TMEM53 (11763286_at) / Fold change /veh TMEM53 (11763286_at) / RFU MAGEB2 (11727129_at) / Fold change /veh MAGEB2 (11727129_at) / RFU TMEM200A (11744735_a_at) / Fold change /veh TMEM200A (11744735_a_at) / RFU CCDC152 (11751479_a_at) / Fold change /veh CCDC152 (11751479_a_at) / RFU FAM211A (11726209_a_at) / Fold change /veh FAM211A (11726209_a_at) / RFU RGS16 (11746705_a_at) / Fold change /veh RGS16 (11746705_a_at) / RFU VCAN (11755009_s_at) / Fold change /veh VCAN (11755009_s_at) / RFU RHOB (11743442_s_at) / Fold change /veh RHOB (11743442_s_at) / RFU RGS16 (11720943_a_at) / Fold change /veh RGS16 (11720943_a_at) / RFU RGS16 (11720944_at) / Fold change /veh RGS16 (11720944_at) / RFU, VPS4B / Fold change vs veh, VPS4B / RFU, CREB1 / Fold change vs veh, CREB1 / RFU, DNAJC13 / Fold change vs veh, DNAJC13 / RFU, GNAQ / Fold change vs veh, GNAQ / RFU, CDK5R1 / Fold change vs veh, CDK5R1 / RFU, ZRANB3 / Fold change vs veh, ZRANB3 / RFU, CUL4A / Fold change vs veh, CUL4A / RFU, CCNY / Fold change vs veh, CCNY / RFU, UFL1 / Fold change vs veh, UFL1 / RFU, COG3 / Fold change vs veh, COG3 / RFU, DIAPH2 / Fold change vs veh, DIAPH2 / RFU, SKA2 / Fold change vs veh, SKA2 / RFU, AFF3 / Fold change vs veh, AFF3 / RFU, LMF1 / Fold change vs veh, LMF1 / RFU, IPO11 / Fold change vs veh, IPO11 / RFU, DFFB / Fold change vs veh, DFFB / RFU, FOXP1 / Fold change vs veh, FOXP1 / RFU, CARD8 / Fold change vs veh, CARD8 / RFU, STRN3 / Fold change vs veh, STRN3 / RFU, ADK / Fold change vs veh, ADK / RFU, RASSF2 / Fold change vs veh, RASSF2 / RFU, WIPF1 / Fold change vs veh, WIPF1 / RFU, LARP1B / Fold change vs veh, LARP1B / RFU, RASA1 / Fold change vs veh, RASA1 / RFU, RB1 / Fold change vs veh, RB1 / RFU, PPFIA1 / Fold change vs veh, PPFIA1 / RFU, MAT2A / Fold change vs veh, MAT2A / RFU, CCT5 / Fold change vs veh, CCT5 / RFU, WDR92 / Fold change vs veh, WDR92 / RFU, CUX1 / Fold change vs veh, CUX1 / RFU, TTC7A / Fold change vs veh, TTC7A / RFU, TMEM135 / Fold change vs veh, TMEM135 / RFU, DEPTOR / Fold change vs veh, DEPTOR / RFU, CPM / Fold change vs veh, CPM / RFU, DNAJB6 / Fold change vs veh, DNAJB6 / RFU, CACNA2D3 / Fold change vs veh, CACNA2D3 / RFU, DTX4 / Fold change vs veh, DTX4 / RFU, TFCP2 / Fold change vs veh, TFCP2 / RFU, GMCL1 /// GMCL1P1 / Fold change vs veh, GMCL1 /// GMCL1P1 / RFU, AEBP2 / Fold change vs veh, AEBP2 / RFU, SNHG1 /// SNORD22 /// SNORD25 /// SNORD26 /// SNORD27 /// SNORD28 /// SNORD29 /// SNORD31 / Fold change vs veh, SNHG1 /// SNORD22 /// SNORD25 /// SNORD26 /// SNORD27 /// SNORD28 /// SNORD29 /// SNORD31 / Fold change (Aza/veh), C12orf56 (ProbeSet 11735607_a_at) / Fold change (ACY-1035/veh), C12orf56 (ProbeSet 11735607_a_at) / Fold change (Aza/veh), FGFR1OP (ProbeSet 11751329_s_at) / Fold change (ACY-1035/veh), FGFR1OP (ProbeSet 11751329_s_at) / Fold change (Aza/veh), VPS36 (ProbeSet 11739960_a_at) / Fold change (ACY-1035/veh), VPS36 (ProbeSet 11739960_a_at) / RFU SYPL1 (11715823_x_at) / Fold change /veh SYPL1 (11715823_x_at) / RFU IGFBP7 (11715501_s_at) / Fold change /veh IGFBP7 (11715501_s_at) / RFU REEP3 (11722064_at) / Fold change /veh REEP3 (11722064_at) / RFU IGLL1 (11728026_x_at) / Fold change /veh IGLL1 (11728026_x_at): dose or concentration left out as unconfirmed
Settings: ProbeSet 11748335_a_at; LIST B

In the case of Nc1ncn([C@@H]2O[C@H](CO)[C@@H](O)[C@H]2O)c(=O)n1 [azacitidine], the “RFU, SLMO2” value is reported as 144.00 RFU.
